Molecular target: Potassium voltage-gated channel subfamily A member 5 (Homo sapiens, UniProt P22460)
Assay: Antagonist activity at human Kv1.5 expressed in mouse L929 cells assessed as inhibition of delayed rectifier repolarization current by patch clamp assay

Potassium voltage-gated channel subfamily A member 5, sequence (P22460 whole entry): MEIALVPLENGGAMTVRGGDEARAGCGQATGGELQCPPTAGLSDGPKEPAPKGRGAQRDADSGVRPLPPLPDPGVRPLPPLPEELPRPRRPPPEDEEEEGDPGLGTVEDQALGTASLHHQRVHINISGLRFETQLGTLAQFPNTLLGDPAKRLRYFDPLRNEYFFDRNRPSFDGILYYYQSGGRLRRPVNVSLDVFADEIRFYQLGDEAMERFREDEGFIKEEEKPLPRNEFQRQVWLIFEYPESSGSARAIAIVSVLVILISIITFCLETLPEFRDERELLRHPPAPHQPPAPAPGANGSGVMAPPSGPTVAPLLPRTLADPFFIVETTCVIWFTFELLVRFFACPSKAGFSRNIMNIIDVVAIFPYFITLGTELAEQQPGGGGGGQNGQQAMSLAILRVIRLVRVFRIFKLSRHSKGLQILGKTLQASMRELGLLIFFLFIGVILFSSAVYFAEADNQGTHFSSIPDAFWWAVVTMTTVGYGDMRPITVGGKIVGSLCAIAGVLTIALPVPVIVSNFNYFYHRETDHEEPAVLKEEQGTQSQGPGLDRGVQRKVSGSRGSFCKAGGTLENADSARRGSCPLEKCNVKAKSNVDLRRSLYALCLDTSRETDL

Row | IC50 | SMILES
1 | 607 nM | CC1=Nc2cc(C(F)(F)F)nn2[C@H](c2ccc(Cl)c(Cl)c2)C1c1ncnn1C1CCC(C(F)(F)F)CC1 (stereo partly drawn)
2 | 223 nM | CCOc1cccc(-n2ncnc2C2C(C)=Nc3cc(C(F)(F)F)nn3[C@@H]2c2ccc(Cl)c(Cl)c2)n1 (stereo partly drawn)
3 | 223 nM | CC1=Nc2ccnn2[C@H](c2ccc(Cl)c(Cl)c2)C1c1ncnn1C(C)(C)C (stereo partly drawn)

Reference: BindingDB's records for doi:10.1016/j.bmcl.2013.01.064 (Bristol Myers Squibb, 2013)
